Data reported in patent publication US8034797B2, “Triazene compounds for the treatment of cancer” (Trin Therapeutics GmbH, priority 2007, dated 2011).
Values after ≈ are worked out from the molar mass of the structure shown. Counter-ions that a name gives are not always drawn. Each block holds one compound with its values, some of them ahead of it.

Legend:
MAXF 401 = MAXF 401 breast tumour xenograft in nude mice; assay type: in vivo; conditions: for Mortality: deaths/animals
Protocol: All the tests were carried out using female nude mice under standard conditions for the keeping of animals with controlled illumination and temperature. The animals were given water and food as desired.
(§1) The increase in the volume of the individual tumours was measured using microcallipers, and the size of the tumour was calculated according to the formula a*b^2/2 (where a is the largest diameter of the tumour and b is the vertical axis). When the tumour volume had increased to 80-120 mm^3, the animals were allocated at random into test groups of in each case 6 animals.
The test compounds (in the form of sodium salts) were dissolved in a saline solution, and 5% Klucel (hydroxypropylcellulose) was added in order to dissolve all the test compounds in the same carrier. […] A volume of 10 ml/kg body weight was injected. Animals that received only the carrier served as control. The test compounds were treated according to the scheme of twice weekly administration over a period of […]. The tumour volume and the body weight were checked twice weekly, and the relative tumour volumes were calculated as the ratio of tumour size to body weight.
On the basis of the relative tumour volumes of the animals treated with the test compounds compared with the tumour volumes of the controls treated only with the carrier, the T/C values were calculated and were used as the index of anti-tumour activity.
Subcutaneous implantation of the tumour and the determination of the tumour volume were carried out as described hereinbefore. The above-mentioned salts of the test substance were administered by ip injection twice weekly in the mentioned doses in the form of an aqueous solution, over a period of 4 weeks. […]
Subcutaneous implantation of the tumour and the determination of tumour volumes were carried out as described hereinbefore. The test substance was administered by ip injection twice weekly in the mentioned doses in the form of the sodium salt as an aqueous solution, over a period of 4 weeks.

Tumour-carrying mice = assay: Nephrological tolerability (kidney post-mortem and histology); assay type: in vivo
Protocol: A control group was treated only with the carrier according to a twice weekly treatment scheme.
When the 28-day treatment period had ended, a post-mortem was carried out on the mice. […] The kidneys of all the animals in the test groups were removed by operation, fixed in formalin according to standard methods, embedded in paraffin and processed for HE staining.

Solubility in water = assay type: physicochemical; conditions: for solubility: water
MEXF 462 = MEXF 462 melanoma xenograft model; assay type: in vivo, nude mice; conditions: for outcome of treatment: equimolar doses ip twice weekly over 4 weeks
Protocol: as §1, with “Breast tumours (MAXF 401) were implanted subcutaneously into the rear members of the mice aged 10 weeks. The” for “The”, “animals. […]” for “animals.”
The anti-tumour activity of the compounds was determined in the MEXF 462 xenograft tumour model in the nude mouse. Subcutaneous implantation of the tumour and the determination of tumour volumes were carried out as described hereinbefore. Groups of in each case 8 animals were used.
Equimolar amounts of the compound of Example 8 were administered ip twice weekly in the form of a 5% DMSO solution over the mentioned period.
The progression over time of the anti-tumour action, expressed in % of the tumour volume at the beginning of the test, over the period of therapy is shown in Table 3.

Solubility in DMSO = assay type: physicochemical; conditions: organic solvent or mixture, room temperature
[1] = sodium salts ip, equimolar to 350 mg/kg of comparison compound, twice weekly over 5 weeks, 100% = no activity
[2] = sodium salts ip, equimolar to 350 mg/kg of comparison compound, twice weekly over 5 weeks
[3] = kidney histology after 28-day twice weekly ip treatment, equimolar to 450 mg of stock composition, affected/animals
[4] = room temperature, read-out: solubility in water at room temperature

SMILES: CN(C)N=Nc1ccc(C(=O)c2ccc(OCC(=O)[O-])cc2)cc1.[Na+] [Ex. 30 of DE 1793115A]
- reduction in the tumour volume development (MAXF 401; 350 mg/kg ip): 50%
- T/C value (MAXF 401; [1]): 48.5%
- Mortality (MAXF 401; [2]): 2/6
- macroscopic findings of the kidneys at post-mortem (Tumour-carrying mice; after 28-day treatment period): macroscopic changes (swelling, local discolouration) of the kidneys
- renal histology finding (Tumour-carrying mice; after 28-day treatment period): Marked focal tubular necrosis of the kidneys
- Acute single-cell necrosis (Tumour-carrying mice; [3]): 4/9
- Focal tubular necrosis (Tumour-carrying mice; [3]): 3/9

- melting point: 104 to 105 °C
SMILES: COC(=O)CNC(=O)CCOc1ccc(C(=O)c2ccc(/N=N/N(C)C)cc2)cc1 [Example 1]

SMILES: CN(C)/N=N/c1ccc(C(=O)c2ccc(OCCC(=O)NCC(=O)O)cc2)cc1 [Example 2, {3-[4(4-[(1E)-3,3-dimethyl-1-triazenyl]-benzoyl)-phenoxyl]propionylamino} acetic acid]
- T/C value (MAXF 401; [1]): 3.4%
- Mortality (MAXF 401; [2]): 0/6

SMILES: CN(C)/N=N/c1ccc(C(=O)c2ccc(OCC(=O)NCC(=O)O)cc2)cc1 [Example 4, {2-[4-(4-[(1E)-3,3-dimethyl-1-triazenyl]-benzoyl)-phenoxy]-acetylamino}acetic acid]
- T/C value (MAXF 401; [1]): 12.6%
- Mortality (MAXF 401; [2]): 0/6

SMILES: CN(C)/N=N/c1ccc(C(=O)c2ccc(OCC(=O)NCC(=O)O)cc2)cc1 [Example 4a]
- salting-out effect in 0.9% NaCl (Solubility in water; 0.9% NaCl): pronounced salting-out effect
- solubility in water at 25° C. (Solubility in water; 25° C.): about 4 g/litre
- solubility in water at 25° C. (Solubility in water; 25° C.; listed as Example 4a)): 4 mg/mL (≈ 10.4 mM)
- T/C value (MAXF 401; 400 mg/kg sodium salt ip twice weekly, after 4 weeks' therapy): 12
- remission (MAXF 401; 500 mg/kg sodium salt ip twice weekly, within 3 weeks of treatment): complete remission

- solubility (Solubility in water; 25 °C, 25° C., read-out: solubility in water at 25° C.): ~400 mg/mL
SMILES: CN(C)/N=N/c1ccc(C(=O)c2ccc(OCCC(=O)NC(CCC(N)=O)C(=O)O)cc2)cc1 (centres unmarked) [Example 7, 4-carbamoyl-2-{3-[4-(4-[(1E)-3,3-dimethyl-1-triazenyl]-benzoyl)-phenoxy]-propionylamino}-butanoic acid sodium salt]
- tumour volume in % of the tumour volume at the beginning of the test, Mean (MEXF 462; day 0, 350 mg/kg ip twice weekly): 100%
- tumour volume in % of the tumour volume at the beginning of the test, Mean (MEXF 462; day 3, 350 mg/kg ip twice weekly): 278%
- tumour volume in % of the tumour volume at the beginning of the test, Mean (MEXF 462; day 7, 350 mg/kg ip twice weekly): 172%
- tumour volume in % of the tumour volume at the beginning of the test, Mean (MEXF 462; day 11, 350 mg/kg ip twice weekly): 73%
- tumour volume in % of the tumour volume at the beginning of the test, Mean (MEXF 462; day 14, 350 mg/kg ip twice weekly): 49%
- tumour volume in % of the tumour volume at the beginning of the test, Mean (MEXF 462; day 18, 350 mg/kg ip twice weekly): 24%
- tumour volume in % of the tumour volume at the beginning of the test, Mean (MEXF 462; day 21, 350 mg/kg ip twice weekly): 6%
- tumour volume in % of the tumour volume at the beginning of the test, Mean (MEXF 462; day 25, 350 mg/kg ip twice weekly): 2%
- tumour volume in % of the tumour volume at the beginning of the test, Mean (MEXF 462; day 28, 350 mg/kg ip twice weekly): 0.3%
- outcome of treatment (MEXF 462): complete remission

- solubility (Solubility in DMSO): 833 mg/mL (≈ 2100 mM)
SMILES: CN(C)/N=N/c1ccc(C(=O)c2ccc(OCCC(=O)NCC(N)=O)cc2)cc1 [Example 8]
- tumour volume in % of the tumour volume at the beginning of the test, Mean (MEXF 462; day 0, 285 mg/kg ip twice weekly, 5% DMSO solution): 100%
- tumour volume in % of the tumour volume at the beginning of the test, Mean (MEXF 462; day 3, 285 mg/kg ip twice weekly, 5% DMSO solution): 293%
- tumour volume in % of the tumour volume at the beginning of the test, Mean (MEXF 462; day 7, 285 mg/kg ip twice weekly, 5% DMSO solution): 369%
- tumour volume in % of the tumour volume at the beginning of the test, Mean (MEXF 462; day 11, 285 mg/kg ip twice weekly, 5% DMSO solution): 174%
- tumour volume in % of the tumour volume at the beginning of the test, Mean (MEXF 462; day 14, 285 mg/kg ip twice weekly, 5% DMSO solution): 134%
- tumour volume in % of the tumour volume at the beginning of the test, Mean (MEXF 462; day 18, 285 mg/kg ip twice weekly, 5% DMSO solution): 107%
- tumour volume in % of the tumour volume at the beginning of the test, Mean (MEXF 462; day 21, 285 mg/kg ip twice weekly, 5% DMSO solution): 151%
- tumour volume in % of the tumour volume at the beginning of the test, Mean (MEXF 462; day 25, 285 mg/kg ip twice weekly, 5% DMSO solution): 172%
- tumour volume in % of the tumour volume at the beginning of the test, Mean (MEXF 462; day 28, 285 mg/kg ip twice weekly, 5% DMSO solution): 271%
- outcome of treatment (MEXF 462): pronounced slowing down of tumour growth

SMILES: CN(C)/N=N/c1ccc(C(=O)c2ccc(OCCC(=O)NCCS(=O)(=O)[O-])cc2)cc1.[Na+] [Example 9]
- solubility (Solubility in water; [4]): 666 mg/mL

SMILES: CN(C)N=Nc1ccc(C(=O)c2ccc(OCC(=O)[O-])cc2)cc1.[Na+] [Preparation 1]
- solubility (Solubility in water; recrystallisation from water, read-out: Solubility (converted)): 40 mg/mL

SMILES: CN(C)/N=N/c1ccc(C(=O)c2ccc(OCC(=O)NCC(=O)O)cc2)cc1 [TRIS salt]
- solubility in water at 25° C. (Solubility in water; 25° C.): about 250 g/litre
- solubility (Solubility in water; [4]): 250 mg/mL
- remission (MAXF 401; TRIS salt ip twice weekly, equimolar doses of 360, 400 and 500 mg/kg of the sodium salt, all doses): complete remission
